Assay results published in patent publication US20210069295A1, “GALECTINS CONTROL MTOR IN RESPONSE TO ENDOMEMBRANE DAMAGE AND PROVIDE A MECHANISM AND TARGET FOR THE TREATMENT OF AUTOPHAGY-RELATED DISEASES” (STC. UNM, priority 2017, published 2021).
Peptide text beside a SMILES is read from it.

Experiments:
[1] = system: bone marrow-derived macrophages (BMMs); assay: LysoTracker Red DND-99 staining in bone marrow-derived macrophages (BMMs); assay type: cell-based, murine; conditions: GPN 400 μM or LLOMe, 1 h
mTOR = mTOR activity in human peripheral blood monocyte derived macrophages; assay type: cell-based; conditions: 100 μM GPN, 1 h
Experimental: (A) Dose-response analysis of mTOR activity in HEK293T cells treated with glycyl-L-phenylalanine 2-naphththylamide (GPN) in full medium for 1 h. mTOR activity was monitored by inununoblotting analysis of S6K1 (T389) and ULK1 (S757) phosphorylation (phosphorylated S6K (T389) and ULK1 (S757) relative to total S6K and ULK1, respectively). (B) Analysis of mTOR activity (as in A) after GPN washout. HEK293T cells were treated with 100 μM GPN for 1 h followed by 1 h washout in full medium. Data, means±SEM (n=3), **p<0.01, ANOVA. (C) Analysis of mTOR activity (as in A) in HEK293T cells treated with increasing doses of silica in full medium for 1 h. (D) HEK293T cells were treated with lysosomal damaging agents (LLOMe, Leu-Leu-OMe) for 1 h in full medium and status of acidified organelles assessed by quantifying LysoTracker Red DND-99 puncta using automated high-content imaging and analysis (HC). […] Data, means±SEM, n≥3 independent experiments (500 primary objects counted per well; ≥5 wells/sample per each experiment), **p<0.01, ANOVA. […] Human peripheral blood monocyte derived macrophages were treated with 100 μM GPN in full medium or starved in EBSS for 1 h, and mTOR activity measured as in A. None-treated cells were as control (Ctrl). […] Data, means±SEM, n≥3 independent experiments (500 primary objects counted per well; ≥5 wells/sample per each experiment) **p<0.01, ANOVA. […]

mTOR and RagA = assay: Co-IP of FLAG-tagged galectins with endogenous mTOR or RagA in HEK293T cells; assay type: binding; conditions: HEK293T overexpressing FLAG-tagged galectins
Experimental: (A) Analysis of the puncta formation of galectins in response to GPN. HeLa cells overexpressing YFP-fused with the indicated galectins were treated with 100 μM GPN or without (Ctrl) in full medium for 1 h and galectin puncta were quantified by HC. […] White masks, algorithm defined cell boundaries (primary objects); green masks, computer-identified galectins puncta (target objects). Data, means±SEM, n≥3 independent experiments (500 primary objects counted per well; ≥5 wells/sample per each experiment); *p<0.05, **p<0.01, † p≥0.05, ANOVA. (B) Immunoprecipitation analysis of the interactions between galectins and mTOR or RagA GTPase. HEK293T cells overexpressing FLAG-tagged galectins were subjected to anti-FLAG immunoprecipitation followed by immunoblotting for endogenous mTOR or RagA. (C) Immunoprecipitation analysis of interactions between Gal8 and mTOR protein complexes in response to GPN treatment. THP-1 cells not treated or treated with 100 μM GPN in full medium for 1 h were subjected to immunoprecipitation with anti-Gal8 antibody, followed by immunoblotting for endogenous RagA, p14, mTOR or Raptor. […] Biotinylated proteins from HEK293T cell expressing APEX2-vector or APEX2-Gal8, after GPN and biotin phenol (BP) treatment were affinity-enriched by binding to streptavidin-beads, and samples were analyzed by immunoblotting analysis for endogenous RagA, p14, mTOR or Raptor. […]

| Compound | LysoTracker Red DND-99 staining in BMMs (lysosomal damage) [1] | mTOR activity in primary cells (mTOR) | co-IP with mTOR and RagA (mTOR and RagA) |
| --- | --- | --- | --- |
| NCC(=O)N[C@@H](Cc1ccccc1)C(=O)Nc1ccc2ccccc2c1 [GPN, glycyl-L-phenylalanine 2-naphththylamide] (HELM PEPTIDE1{G.F.[c1ccc2cc(N[*:1])ccc2c1]}$$$$V2.0) | reduced LysoTracker Red DND-99 staining | confirmed | – |
| Gal8: protein of the galectin family encoded by the gene LGALS8; beta-galactoside-binding lectin | – | – | found in co-IPs |
